Results from ChEMBL document CHEMBL1201862, “PubChem BioAssay data set” (2004).
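96-well plates; 48 h exposure; 5 concentrations. Endpoints by linear interpolation between flanking doses. Not reached: highest tested concentration assigned. GI50: concentration for 50% inhibition of growth.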 The source made the active and inactive calls. Rule as the data show it: active = GI50 up to about 1.1 µM and inactive = higher.

Assays:
Experiment in all cases: growth of human tumour cells (NCI), 48 h
SNB-19 = tested on: SNB-19
M14 = tested on: M14
786-0 = tested on: 786-0
NCI-H226 = tested on: NCI-H226
SW-620 = tested on: SW-620
Malme-3M = tested on: Malme-3M
PC-3 = tested on: PC-3
SF-539 = tested on: SF-539
U-251 = tested on: U-251
RPMI-8226 = tested on: RPMI-8226
ACHN = tested on: ACHN
KM12 = tested on: KM12
SR = tested on: SR
A498 = tested on: A498
RXF 393 = tested on: RXF 393
Hs-578T = tested on: Hs-578T
NCI-H460 = tested on: NCI-H460
SK-MEL-28 = tested on: SK-MEL-28
MDA-N = tested on: MDA-N

Measured: GI50

O=C(NNC(=S)NC1CCCCC1)c1csc(NC(=S)NC2CCCCC2)n1
inactive: SNB-19 12 µM | M14 3.46 µM | 786-0 7.64 µM | NCI-H226 66.7 µM | SW-620 5.13 µM | Malme-3M 11.2 µM | PC-3 10.9 µM | SF-539 4.58 µM | U-251 5.73 µM | RPMI-8226 9.86 µM | ACHN 3.54 µM | KM12 10.6 µM | SR 5.4 µM | A498 21.5 µM

CCCCCCCCC[C@@H]1C[C@@H]2CCC3C(C(=O)OCCCCNC(=O)OCc4ccccc4)=C(C)N=C(N1)N32 (stereo partly drawn)
inactive: RXF 393 2.55 µM | SNB-19 6.18 µM | M14 2.55 µM | 786-0 1.76 µM | NCI-H226 3.58 µM | SW-620 3.45 µM | PC-3 2.47 µM | SF-539 3.86 µM | U-251 2.9 µM | Hs-578T 2.51 µM | RPMI-8226 2.13 µM | ACHN 3.15 µM | NCI-H460 3.22 µM | SK-MEL-28 3.61 µM | KM12 3.13 µM | A498 4.66 µM

O=c1[nH]c(=O)n(Cc2ccccc2CO)cc1Sc1ccccc1
inactive: RXF 393 24.7 µM | SNB-19 35.7 µM | M14 19.7 µM | 786-0 47.2 µM | NCI-H226 22.4 µM | SW-620 36.9 µM | Malme-3M 21.4 µM | PC-3 33 µM | SF-539 23.2 µM | U-251 34.4 µM | Hs-578T 23.1 µM | ACHN 26.5 µM | NCI-H460 49.7 µM | SK-MEL-28 34.8 µM | KM12 23.7 µM | SR 25.4 µM

O=C(O)C#CCO
inactive: RXF 393 > 100 µM | SNB-19 > 100 µM | M14 > 100 µM | 786-0 > 100 µM | SW-620 > 100 µM | Malme-3M > 100 µM | SF-539 > 100 µM | U-251 > 100 µM | RPMI-8226 > 100 µM | ACHN > 100 µM | NCI-H460 > 100 µM | SK-MEL-28 > 100 µM | KM12 > 100 µM | A498 > 100 µM

CC(=O)OCC1C(C(C)OC(C)=O)CCC2C1CCC1(C)C(OC(C)=O)CCC21 (stereo not drawn)
inactive: MDA-N 18.6 µM | SNB-19 20.4 µM | M14 17.1 µM | 786-0 22.6 µM | NCI-H226 16.6 µM | SW-620 17.9 µM | Malme-3M 16.9 µM | SF-539 17.7 µM | U-251 16.6 µM | Hs-578T > 10 µM | RPMI-8226 16.5 µM | ACHN 14.8 µM | NCI-H460 16.9 µM | SK-MEL-28 15.7 µM | KM12 15.7 µM | SR 23.7 µM | A498 19.7 µM

CO/N=C/c1c(-c2ccc(Cl)cc2)c(/C=N/OC)n2c1sc1ccccc12
inactive: RXF 393 > 100 µM | MDA-N > 100 µM | SNB-19 > 100 µM | 786-0 > 100 µM | SW-620 > 100 µM | Malme-3M > 100 µM | PC-3 > 100 µM | U-251 > 100 µM | Hs-578T > 100 µM | ACHN > 100 µM | NCI-H460 > 100 µM | SK-MEL-28 > 100 µM | KM12 > 100 µM

CNC(=O)N(CCC#N)[C@H]1CCCC[C@@H]1N(C(=O)NC)c1ccccc1
inactive: RXF 393 > 100 µM | MDA-N > 100 µM | SNB-19 > 100 µM | M14 > 100 µM | 786-0 > 100 µM | NCI-H226 > 100 µM | SW-620 > 100 µM | Malme-3M > 100 µM | PC-3 > 100 µM | SF-539 > 100 µM | U-251 > 100 µM | RPMI-8226 > 100 µM | ACHN > 100 µM | NCI-H460 > 100 µM | SK-MEL-28 > 100 µM | KM12 > 100 µM | SR > 100 µM

C/C(=C\CO)CC/C=C(\C)CNc1ccccc1
inactive: RXF 393 48.1 µM | SNB-19 62.5 µM | M14 62.7 µM | 786-0 > 100 µM | NCI-H226 36.9 µM | SW-620 50.2 µM | Malme-3M 13.5 µM | PC-3 28.8 µM | SF-539 82.6 µM | U-251 59.4 µM | Hs-578T 29.8 µM | ACHN > 100 µM | NCI-H460 > 100 µM | SK-MEL-28 51.1 µM | KM12 28.4 µM | SR 34.3 µM

C[N+](C)(CCNc1ccc(NCC[N+](C)(C)Cc2ccc([N+](=O)[O-])cc2)c2c1C(=O)c1c(O)ccc(O)c1C2=O)Cc1ccc([N+](=O)[O-])cc1
inactive: RXF 393 > 50 µM | MDA-N 46.7 µM | M14 > 50 µM | 786-0 8.41 µM | SW-620 > 50 µM | Malme-3M 30 µM | PC-3 37.8 µM | SF-539 19.1 µM | U-251 > 50 µM | Hs-578T > 50 µM | RPMI-8226 > 50 µM | ACHN > 50 µM | NCI-H460 3.2 µM | SK-MEL-28 > 50 µM | KM12 1.36 µM | A498 > 50 µM

CC(=O)N1c2cc(/N=N/N(C)C)ccc2NC(=O)CC1C (stereo not drawn)
inactive: RXF 393 > 100 µM | MDA-N > 100 µM | SNB-19 > 100 µM | M14 > 100 µM | 786-0 > 100 µM | NCI-H226 > 100 µM | SW-620 > 100 µM | Malme-3M > 100 µM | PC-3 > 100 µM | U-251 > 100 µM | Hs-578T > 100 µM | RPMI-8226 > 100 µM | ACHN > 100 µM | NCI-H460 > 100 µM | SK-MEL-28 > 100 µM | KM12 > 100 µM

COc1cc(/C=C2\C(=O)N(c3cccc(Cl)c3)C(c3ccccc3)S2(=O)=O)cc(OC)c1OC (stereo not drawn)
inactive: RXF 393 26.2 µM | MDA-N 20.8 µM | SNB-19 23.7 µM | M14 31.3 µM | 786-0 42.2 µM | NCI-H226 89.7 µM | SW-620 59.7 µM | Malme-3M 43.4 µM | SF-539 43.3 µM | U-251 73.8 µM | Hs-578T > 100 µM | RPMI-8226 23.2 µM | ACHN 76.7 µM | NCI-H460 > 100 µM | SK-MEL-28 69.2 µM | KM12 58.1 µM | A498 > 100 µM

N=C(N)N/N=C/c1c(-c2cccc([N+](=O)[O-])c2)nc2n1CCS2
inactive: RXF 393 19.3 µM | SNB-19 13.8 µM | M14 24.4 µM | 786-0 29.3 µM | NCI-H226 20.3 µM | SW-620 5.45 µM | Malme-3M 18.9 µM | PC-3 16.9 µM | SF-539 20 µM | U-251 14.9 µM | Hs-578T 7.1 µM | RPMI-8226 34.9 µM | ACHN 17.7 µM | NCI-H460 22.8 µM | SK-MEL-28 19.8 µM | KM12 18.4 µM | SR 12.7 µM | A498 17 µM

COc1c2c(c(CC=C(C)C)c3oc(=O)c(-c4ccc(O)cc4)c(O)c13)OC(C)(C)C=C2 [LONCHOCARPIC ACID]
inactive: RXF 393 1.41 µM | SNB-19 29.5 µM | M14 25.8 µM | 786-0 25.5 µM | NCI-H226 21.5 µM | SW-620 44.1 µM | Malme-3M 30.8 µM | PC-3 31.5 µM | SF-539 15.1 µM | U-251 8.26 µM | Hs-578T 36.2 µM | RPMI-8226 19.5 µM | ACHN 22.1 µM | NCI-H460 24 µM | SK-MEL-28 25.9 µM | KM12 14.4 µM | SR 18.5 µM | A498 31.8 µM

CC(=O)O[C@H]1C[C@H](O[C@H]2[C@@H](O)C[C@H](O[C@H]3[C@@H](O)C[C@H](O[C@H]4CC[C@@]5(C)[C@H](CC[C@@H]6[C@@H]5C[C@@H](O)[C@]5(C)[C@@H](C7=CC(=O)OC7)CC[C@]65O)C4)O[C@@H]3C)O[C@@H]2C)O[C@H](C)[C@H]1O[C@@H]1O[C@H](CO)[C@@H](O)[C@H](O)[C@H]1O [LANATOSIDE C]
active: MDA-N 0.156 µM | SNB-19 0.168 µM | M14 0.147 µM | 786-0 0.0322 µM | NCI-H226 0.243 µM | SW-620 0.0536 µM | Malme-3M 0.0678 µM | SF-539 0.0336 µM | U-251 0.0741 µM | Hs-578T 0.0252 µM | RPMI-8226 0.0368 µM | ACHN 0.0283 µM | NCI-H460 0.0138 µM | SK-MEL-28 0.303 µM | KM12 0.104 µM | SR 0.1 µM | A498 0.0897 µM

O=S(=O)(N1CCCCN(S(=O)(=O)C(F)(F)F)CCCN(S(=O)(=O)C(F)(F)F)CCCN(S(=O)(=O)C(F)(F)F)CCCCN(S(=O)(=O)C(F)(F)F)CCCN(S(=O)(=O)C(F)(F)F)CCC1)C(F)(F)F
inactive: RXF 393 28.6 µM | MDA-N > 100 µM | SNB-19 35.2 µM | M14 63.7 µM | 786-0 18.2 µM | NCI-H226 81.8 µM | SW-620 > 100 µM | Malme-3M 23.2 µM | PC-3 > 100 µM | SF-539 28.9 µM | U-251 21.6 µM | Hs-578T 30.3 µM | ACHN > 100 µM | NCI-H460 30.9 µM | SK-MEL-28 > 100 µM | KM12 > 100 µM | A498 52.6 µM

Cc1cc(-c2ccccc2)nc2oc(=O)n(C)c12
inactive: RXF 393 28.1 µM | MDA-N > 100 µM | SNB-19 > 100 µM | M14 > 100 µM | 786-0 37.8 µM | NCI-H226 > 100 µM | SW-620 > 100 µM | Malme-3M > 100 µM | PC-3 > 100 µM | U-251 51.1 µM | Hs-578T > 100 µM | ACHN > 100 µM | NCI-H460 > 100 µM | SK-MEL-28 > 100 µM | KM12 > 100 µM | A498 > 100 µM
